IC50 data for 18 compounds are collected here from patent US20240059710A1, “KRAS G12D Inhibitors” (Jacobio Pharmaceuticals Co., Ltd., priority 2020, published 2024).

One may read the IC50 as the midpoint of a concentration-inhibition curve.

Where two headings read alike, the source gives them in different places. Some results are limits rather than exact numbers.

Assay [1] deals with T1, GppNp-loaded HIS-KRAS (G12D, aa 1-169) / cRAF RBD (Homo sapiens, UniProt P01116, G12D).
T1 construct: GppNp-loaded HIS-KRAS (G12D, aa 1-169)
Description: GTP-KRAS and cRAF interaction assay. The note with it: HTRF, 2 hours at 25° C. Type of assay: binding. The procedure:
2. GTP-KRAS and cRAF Interaction Assay
GppNp-loaded HIS-KRAS (G12D, aa 1-169) was pre-incubated with a compound in the presence of 200 µM GTP in a 384-well plate (Greiner) for 15 min, then cRAF RBD (GST tag, aa 50-132, CreativeBioMart), MAb Anti GST-d2 (Cisbio) and MAb Anti 6HIS-Tb cryptate Gold (Cisbio) were added to the assay wells (Final concentration: 2.0 nM GppNp-loaded HIS-KRAS (G12D), 100 μM GTP, 35 nM cRAF RBD, 1 μg/mL MAb Anti GST-d2, 52.5 ng/mL MAb Anti 6HIS-Tb cryptate Gold) and incubated for 2 hours at 25° C. Wells containing same percent of DMSO served as vehicle control, and wells without KRAS served as low control. HTRF signals were read on Tecan Spark multimode microplate reader and HTRF ratios were calculated under manufacturer's instructions. The percent of activation of compounds treated wells were normalized between vehicle control and low control (% Activation=(HTRF ratioCompound treated−HTRF ratioLow control)/(HTRF ratioVehicle control−HTRF ratioLow control)*100). Then the data were analyzed either by fitting a 4-parameter logistic model or by Excel to calculate IC50 values.
Background: TR-FRET usually uses a lanthanide donor and a delayed reading to cut background.

In assay [2] the test system is AGS. The assay is described as follows: Cell growth inhibition assay (AGS). Type of assay: cell-based. The note with it: 6 days incubation, CellTiter-Glo. The procedure:
(§1) 4. Cell Growth Inhibition Assay
AGS cultured in F12K medium (Gibco) containing 10% fetal bovine serum (Gibco). Cells in culture medium were plated in 96-well plates at a concentration of 500 cells/well ([…]) and allowed to attach overnight.
(§2) The next day, compounds were diluted in culture medium and added to the plates. After 6 days incubation in a 37° C./5% CO2 cell incubator, the cell viability was detected by CellTiter-Glo® Luminescent Cell Viability Assay kit (Promega). Luminescent signals were read on Tecan Spark multimode microplate reader and analyzed using a 4-parameter logistic model to calculate IC50 values.
A general note: In ATP-based viability assays light output follows the ATP content of the culture.

Assay [3] deals with AGS cells expressing KRAS G12D. The assay is described as follows: Phospho-ERK1/2(THR202/TYR204) HTRF assay. The format is cell-based. The note with it: 2 hours incubation, read-out: AGS p-ERK IC50. The procedure: AGS cells expressing KRAS G12D were cultured in F12K medium (Gibco) containing 10% fetal bovine serum (Gibco). The AGS cells in culture medium were seeded in 96-well plates at a concentration of 40,000 cells/well and then put in a 37° C./5% CO2 cell incubator to incubate overnight. The next day, culture medium was removed and the compound diluted in assay medium (F12K, 0.1% FBS) was added in each well. After 2 hours incubation in a 37° C./5% CO2 cell incubator, the assay medium in 96-well plates was removed, then 50 μL of 1× blocking reagent-supplemented lysis buffer (Cisbio) was added and the plates were incubated at 25° C. for 45 min with shaking. 10 μL of cell lysates from the 96-well plates were transferred to a 384-well plate (Greiner) containing 2.5 μL/well HTRF® pre-mixed antibodies (Cisbio 64AERPEH). Incubate 4 hours at 25° C. and then read HTRF signals on Tecan Spark multimode microplate reader. The data were analyzed using a 4-parameter logistic model to calculate IC50 values.

Assay [4] deals with AsPC-1. The assay is described as follows: Cell growth inhibition assay (AsPC-1). The format is cell-based. The note with it: AsPC-1, 6 days incubation, CellTiter-Glo. The procedure:
as §1
AsPC-1 cultured in RPMI-1640 medium (Gibco) containing 10% fetal bovine serum (Gibco). Cells in culture medium were plated in 96-well plates at a concentration of 1000 cells/well ([…]) and allowed to attach overnight.
as §2

In assay [5] the target is T2, GDP-loaded HIS-KRAS (G12D, aa 1-169) (Homo sapiens, UniProt P01116, G12D).
T2 construct: GDP-loaded HIS-KRAS (G12D, aa 1-169)
Description: SOS1 catalyzed nucleotide exchange assay. The note with it: SOS1 ExD, TR-FRET, 4 hours at 25° C. Type of assay: biochemical. The procedure:
1. SOS1 Catalyzed Nucleotide Exchange Assay
GDP-loaded HIS-KRAS (G12D, aa 1-169) was pre-incubated with a compound in the presence of 10 nM GDP in a 384-well plate (Greiner) for 15 min, then purified SOS1 ExD (Flag tag, aa 564-1049), BODIPY™ FL GTP (Invitrogen) and MAb (monoclonal antibody) Anti 6HIS-Tb cryptate Gold (Cisbio) were added to the assay wells (Final concentration: 1.5 nM GDP-loaded HIS-KRAS (G12D), 5 nM GDP, 0.5 μM SOS1 ExD, 80 nM BODIPY™ FL GTP, 52.5 ng/mL MAb Anti 6HIS-Tb cryptate Gold) and incubated for 4 hours at 25° C. Wells containing same percent of DMSO served as vehicle control, and wells without KRAS served as low control. TR-FRET signals were read on Tecan Spark multimode microplate reader. The parameters were F486: Excitation 340 nm, Emission 486 nm, Lag time 100 μs, Integration time 200 μs; F515: Excitation 340 nm, Emission 515 nm, Lag time 100 μs, Integration time 200 μs. TR-FRET ratios for each individual wells were calculated by equation: TR-FRET ratio=(Signal F515/Signal F486)*10000. The percent of activation of compounds treated wells were normalized between vehicle control and low control (% Activation=(TR-FRET ratioCompound treated−TR-FRET ratioLow control)/(TR-FRET ratioVehicle control−TR-FRET ratioLow control)*100%). Then the data were analyzed either by fitting a 4-parameter logistic model or by Excel to calculate IC50 values.

T1 sequence (P01116 1-169 isoform P01116-2 G12D): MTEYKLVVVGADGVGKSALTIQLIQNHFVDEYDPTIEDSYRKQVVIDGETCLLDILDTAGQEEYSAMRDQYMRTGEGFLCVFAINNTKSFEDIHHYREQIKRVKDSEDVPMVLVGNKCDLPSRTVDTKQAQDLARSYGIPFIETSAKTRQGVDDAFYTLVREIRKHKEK
T2 sequence (P01116 1-169 isoform P01116-2 G12D): as above

In the case of `C#Cc1cccc2cc(O)cc(-c3c(F)cc4c(N5CC6CCC(C5)N6)nc(OCC5(CN6CCOCC6)CC5)nc4c3F)c12` (single isomer, unassigned) [Compound 41B], the half-inhibitory concentration (IC50) in assay [1] came out at 50.4 nM; in assay [2] it was 0.671 nM; in assay [3], 1.01 nM; in assay [4] it was 3.84 nM; in assay [5] it was 6.9 nM.

As for `C#Cc1cccc2cc(O)cc(-c3cc4nc(OC[C@@]56CCCN5C[C@H](F)C6)nc(N5CC6CCC(C5)N6)c4cc3Cl)c12` [Compound 97], the IC50 in assay [1] was determined as 44.6 nM; in assay [2] (Homo sapiens, 144 h) it was 45.3 nM; in assay [3] (Homo sapiens), 5.22 nM; in assay [4] (Homo sapiens, ASPC1, 144 h), 127 nM; in assay [5], 7.64 nM.

Consider `C#Cc1cccc2cc(O)cc(-c3c(F)cc4c(N5CC6CCC(C5)N6)nc(OCC5(CN6CC[S+]([O-])CC6)CC5)nc4c3F)c12` [Compound 89], for which the IC50 in assay [1] is 1940 nM; in assay [2] (Homo sapiens, 144 h), 14.9 nM; in assay [3] (Homo sapiens), over 1000 nM; in assay [4] (Homo sapiens, ASPC1, 144 h), 96.6 nM; in assay [5], 20.5 nM.

Consider `C#Cc1cccc2cc(O)cc(-c3c(Cl)cc4c(N5CC6CCC(C5)N6)nc(OCC5(CN6CCOCC6)CC5)nc4c3F)c12` (single isomer, unassigned) [Compound 35B], for which the IC50 in assay [1] stood at 111 nM; in assay [2] it was 13.4 nM; in assay [3], 6.2 nM; in assay [4], 39.5 nM; in assay [5], 5.94 nM.

For `Oc1cc(Cl)c(C2CC2)c(-c2c(Cl)cc3c(N4CC5CCC(C4)N5)nc(OCC4(CN5CCOCC5)CC4)nc3c2F)c1` [Compound 133], the IC50 in assay [1] amounted to 688 nM; in assay [2] (Homo sapiens, 144 h), 140 nM; in assay [3] (Homo sapiens), 456 nM; in assay [4] (Homo sapiens, ASPC1, 144 h), 714 nM; in assay [5] it was 7.82 nM.

Take `C#Cc1cccc2cc(O)cc(-c3ccc4c(N5CC6CCC(C5)N6)nc(OCC5(CN6CCC[C@H](F)C6)CC5)nc4c3F)c12` [Compound 113]: the half-maximal inhibitory concentration (IC50) in assay [1] was found to be 124 nM; in assay [2] it was 4.35 nM; in assay [3], 15.9 nM; in assay [4], 18.4 nM; in assay [5], 12.6 nM.

Consider `Oc1cc(-c2ccc3c(N4CC5CCC(C4)N5)nc(OCC4(CN5CCOCC5)CC4)nc3c2F)c2c(Cl)cccc2c1` [Compound 88], for which the concentration for half-maximal inhibition (IC50) in assay [1] stood at 148 nM; in assay [2] (Homo sapiens, 144 h), 17 nM; in assay [3] (Homo sapiens), 35.7 nM; in assay [4] (Homo sapiens, ASPC1, 144 h), 153 nM; in assay [5] it was 16.7 nM.

Turning to `C#Cc1cccc2cc(O)cc(-c3c(Cl)cc4c(N5CC6CCC(C5)N6)nc(OCC5(CN6CCOCC6)CC5)nc4c3Cl)c12` (single isomer, unassigned) [Compound 107B], the IC50 in assay [1] was determined as 399 nM; in assay [2] (Homo sapiens, 144 h), 150 nM; in assay [3] (Homo sapiens), 57.6 nM; in assay [4] (Homo sapiens, ASPC1, 144 h), 395 nM; in assay [5], 3.16 nM.

As for `C#Cc1cccc2cc(O)cc(-c3c(C(F)(F)F)cc4c(N5CC6CCC(C5)N6)nc(OCC5(CN6CCOCC6)CC5)nc4c3F)c12` (single isomer, unassigned) [Compound 98B], the IC50 in assay [1] was 11.2 nM; in assay [2] it was 6.03 nM; in assay [3], 11.6 nM; in assay [4], 36.7 nM; in assay [5] it was 0.826 nM.

Consider `C#Cc1cccc2cc(O)cc(-c3ccc4c(N5CC6CCC(C5)N6)nc(OCC5(CN6CCO[C@H](C)C6)CC5)nc4c3F)c12` [Compound 68], for which the IC50 came out at 131 nM in assay [1]; 3.26 nM in assay [2] (Homo sapiens, 144 h); 4.83 nM in assay [3] (Homo sapiens); 7.8 nM in assay [4] (Homo sapiens, ASPC1, 144 h); 14.4 nM in assay [5].

In the case of `C#Cc1cccc2cc(O)cc(-c3c(C)cc4c(N5CC6CCC(C5)N6)nc(OCC5(CN6CCOCC6)CC5)nc4c3F)c12` [Compound 40], the IC50 in assay [1] amounted to 74.3 nM; in assay [2] (Homo sapiens, 144 h) it was 15.4 nM; in assay [3] (Homo sapiens), 3.72 nM; in assay [4] (Homo sapiens, ASPC1, 144 h) it was 55.5 nM; in assay [5] it was 27.7 nM.

Consider `C#Cc1cccc2cc(O)cc(-c3ccc4c(N5CC6CCC(C5)N6)nc(OCC5(CN6CCOCC6)CC5)nc4c3F)c12` [Compound 34], for which the IC50 in assay [1] is 12.6 nM; in assay [2] (Homo sapiens, 144 h) it was 11.1 nM; in assay [3] (Homo sapiens) it was 2.16 nM; in assay [4] (Homo sapiens, ASPC1, 144 h), 19.1 nM; in assay [5], 8.73 nM.

With `C#Cc1c(F)ccc2cc(O)cc(-c3ccc4c(N5CC6CCC(C5)N6)nc(OCC5(CN6CCC(C(=O)O)CC6)CC5)nc4c3F)c12` [Compound 77], the IC50 in assay [1] is 74.1 nM; in assay [2] (Homo sapiens, 144 h) it was 1180 nM; in assay [3] (Homo sapiens) it was 173 nM; in assay [4] (Homo sapiens, ASPC1, 144 h), over 10000 nM; in assay [5] it was 5.11 nM.

Turning to `C#Cc1cccc2cc(O)cc(-c3ccc4c(N5CC6CCC(C5)N6)nc(OC[C@@]56CCCN5C[C@H](F)C6)nc4c3Cl)c12` [Compound 81], the IC50 in assay [1] was found to be 225 nM; in assay [2] (Homo sapiens, 144 h), 16.2 nM; in assay [3] (Homo sapiens), 13.9 nM; in assay [4] (Homo sapiens, ASPC1, 144 h), 153 nM; in assay [5] it was 9.49 nM.

`C#Cc1cccc2cc(O)cc(-c3c(CCC#N)cc4c(N5CC6CCC(C5)N6)nc(OCC5(CN6CCOCC6)CC5)nc4c3F)c12` [Compound 44]: the IC50 in assay [1] turned out to be 18.2 nM; in assay [2] (Homo sapiens, 144 h), 13.2 nM; in assay [3] (Homo sapiens) it was 3.81 nM; in assay [4] (Homo sapiens, ASPC1, 144 h), 185 nM; in assay [5], 2.14 nM.

`C#Cc1cccc2cc(O)cc(-c3ccc4c(N5CC6CCC(C5)N6)nc(OCC5(CN6CCC(OC)CC6)CC5)nc4c3F)c12` [Compound 117]: the IC50 in assay [1] is 129 nM; in assay [2] (Homo sapiens, 144 h), 12.4 nM; in assay [3] (Homo sapiens) it was 10.3 nM; in assay [4] (Homo sapiens, ASPC1, 144 h) it was 85.6 nM; in assay [5], 17.1 nM.

`C#Cc1cccc2cc(O)cc(-c3cc4nc(OCC5(CN6CCOCC6)CC5)nc(N5CC6CCC(C5)N6)c4cc3C#N)c12` [Compound 61]: the IC50 in assay [1] came to 284 nM; in assay [2] (Homo sapiens, 144 h), 130 nM; in assay [3] (Homo sapiens), 32.8 nM; in assay [4] (Homo sapiens, ASPC1, 144 h), 897 nM; in assay [5], 23.5 nM.

In the case of `C#Cc1cccc2cc(O)cc(-c3c(F)cc4c(N5CC6CCC(C5)N6)nc(OCC5(CN6CCOCC6)CC5)nc4c3C)c12` [Compound 101], the IC50 in assay [1] is 277 nM; in assay [2] (Homo sapiens, 144 h), 39.6 nM; in assay [3] (Homo sapiens), 125 nM; in assay [4] (Homo sapiens, ASPC1, 144 h), 113 nM; in assay [5], 1.59 nM.
